Laboratory results: ChEMBL document CHEMBL6177930, “2-(4-Bromobenzyl) tethered 4-amino aryl/alkyl-5,6,7,8-tetrahydrobenzo[4,5]thieno[2,3-d]pyrimidines: design, synthesis, anticancer assessment via dual topoisomerase-I/II inhibition, and in silico studies” (RSC Med Chem, 2025)
Calls of active or inactive are those of the source. The calls are words filed in the database; no cut-off is given here.

Assays:
FaDu [1] = experiment: Induction of apoptosis in human FaDu cells assessed as appearance of deformed cell membrane at 1 to 5 uM by DAPI staining based analysis; assay type: functional; conditions: dose 1-5 µM
FaDu [2] = experiment: Induction of morphological changes in human FaDu cells assessed as reduction in cell density at 2 to 5 uM incubated for 48 hrs by bright field microscope based analysis; assay type: functional; conditions: dose 2-5 µM
FaDu [3] = experiment: Antiproliferative activity against human FaDu cells assessed as inhibition of cell growth measured after 72 hrs by MTT assay; assay type: functional, cell-based
HEK293 = experiment: Antiproliferative activity against HEK293 cells assessed as inhibition of cell growth at 10 to 25 uM measured after 48 to 72 hrs by MTT assay; assay type: toxicity, cell-based; conditions: human, hek293, 25 µM; dose lower 10 µM, time lower 48 hrs, dose upper 25 µM, time upper 72 hrs
Mitochondrial membrane = experiment: Induction of mitochondrial membrane potential loss in human FaDu cells assessed as decrease in green fluorescence incubated for 48 hrs by Rhodamine 123 staining based fluorescence microscopy analysis; assay type: cell membranes; conditions: dose 1-5 µM
[4] = target: DNA topoisomerase 2-alpha (Homo sapiens) (UniProt P11388); experiment: Inhibition of human topoisomerase-II alpha assessed as reduction in decatenation activity using kinetoplast DNA as substrate incubated for 30 mins by EtBr staining based agarose gel electrophoresis method
FaDu [5] = experiment: Induction of apoptosis in human FaDu cells assessed as chromatin condensation at 1 to 5 uM by DAPI staining based analysis; assay type: functional, cell-based; conditions: dose 1-5 µM
MCF7 [6] = experiment: Induction of cell cycle arrest in human MCF7 cells assessed as accumulation of cells at G0/G1 phase measured after 24 hrs by PI staining based flow cytometry analysis (reference value: 45.2%); assay type: functional
[7] = target: T1, Prostaglandin G/H synthase 2 (Homo sapiens) (UniProt P35354); experiment: Inhibition of human recombinant COX-2 at 10 uM relative to control
T1 sequence (whole entry): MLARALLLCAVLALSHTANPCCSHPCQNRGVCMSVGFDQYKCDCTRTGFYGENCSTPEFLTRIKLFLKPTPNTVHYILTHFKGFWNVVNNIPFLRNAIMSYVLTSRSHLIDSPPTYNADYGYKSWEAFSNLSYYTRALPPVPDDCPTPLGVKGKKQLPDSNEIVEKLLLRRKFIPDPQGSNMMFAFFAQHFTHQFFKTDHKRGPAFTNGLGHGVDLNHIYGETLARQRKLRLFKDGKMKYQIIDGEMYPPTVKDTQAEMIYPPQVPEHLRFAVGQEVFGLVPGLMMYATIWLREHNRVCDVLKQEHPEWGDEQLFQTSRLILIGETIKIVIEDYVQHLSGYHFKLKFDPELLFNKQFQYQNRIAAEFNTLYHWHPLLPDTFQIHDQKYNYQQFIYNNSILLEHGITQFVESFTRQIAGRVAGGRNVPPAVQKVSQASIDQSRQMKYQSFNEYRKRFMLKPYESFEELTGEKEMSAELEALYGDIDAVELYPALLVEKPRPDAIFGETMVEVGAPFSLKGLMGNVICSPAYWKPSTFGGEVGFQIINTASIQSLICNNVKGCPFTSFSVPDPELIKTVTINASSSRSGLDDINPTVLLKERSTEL

FaDu [8] = experiment: Induction of morphological changes in human FaDu cells assessed as appearance of detached cells at 2 to 5 uM incubated for 48 hrs by bright field microscope based analysis; assay type: functional, cell-based; conditions: dose 2-5 µM
MCF7 [9] = experiment: Induction of cell cycle arrest in human MCF7 cells assessed as accumulation of cells at S phase measured after 24 hrs by PI staining based flow cytometry analysis (reference value: 24.7%); assay type: functional
T47D = experiment: Antiproliferative activity against human T47D cells assessed as inhibition of cell growth at 10 uM measured after 48 to 72 hrs by MTT assay relative to control; assay type: functional; conditions: time 48-72 hrs
FaDu [10] = experiment: Inhibition of cell migration in human FaDu cells assessed as reduction in wound closure at 5 uM measured after 48 hrs by bright field microscopic analysis relative to control; assay type: functional
FaDu [11] = experiment: Upregulation of LC3A/B level in human FaDu cells measured after 48 hrs by Western blot analysis; assay type: functional, cell-based; conditions: dose 1-5 µM
FaDu [12] = experiment: Induction of morphological changes in human FaDu cells assessed as appearance of rounded cells at 2 to 5 uM incubated for 48 hrs by bright field microscope based analysis; assay type: functional, cell-based; conditions: dose 2-5 µM
FaDu [13] = experiment: Induction of morphological changes in human FaDu cells assessed as appearance of rounded cells at 1 uM incubated for 48 hrs by bright field microscope based analysis; assay type: functional, cell-based
FaDu [14] = experiment: Induction of apoptosis in human FaDu cells assessed as apoptotic bodies at 1 to 5 uM by DAPI staining based analysis; assay type: functional, cell-based; conditions: dose 1-5 µM
[15] = Antiproliferative activity against human HCC cells assessed as inhibition of cell growth at 10 uM measured after 48 to 72 hrs by MTT assay relative to control; assay type: functional; conditions: time 48-72 hrs
FaDu [16] = experiment: Induction of autophagy in human FaDu cells assessed as increase in acidic vesicular organelles measured after 48 hrs by acridine orange staining based fluorescence microscopy analysis; assay type: functional, cell-based; conditions: dose 1-5 µM
FaDu [17] = experiment: Induction of morphological changes in human FaDu cells assessed as appearance of detached cells at 1 uM incubated for 48 hrs by bright field microscope based analysis; assay type: functional, cell-based
FaDu [18] = experiment: Inhibition of colony formation in human FaDu cells assessed as reduction in colony formation incubated for 48 hrs crystal violet staining based analysis; assay type: functional, cell-based; conditions: dose 1-5 µM
A549 = experiment: Antiproliferative activity against human A549 cells assessed as inhibition of cell growth at 10 uM measured after 48 to 72 hrs by MTT assay relative to control; assay type: functional; conditions: time 48-72 hrs
FaDu [19] = experiment: Induction of autophagy in human FaDu cells assessed as reduction in cell density at 1 to 5 uM measured after 48 hrs by acridine orange staining based fluorescence microscopy analysis; assay type: functional; conditions: dose 1-5 µM
MDA-MB-231 = experiment: Antiproliferative activity against human MDA-MB-231 cells assessed as inhibition of cell growth at 10 uM measured after 48 to 72 hrs by MTT assay relative to control; assay type: functional; conditions: time 48-72 hrs
FaDu [20] = experiment: Induction of morphological changes in human FaDu cells assessed as reduction in cell density at 1 uM incubated for 48 hrs by bright field microscope based analysis; assay type: functional
FaDu [21] = experiment: Inhibition of cell migration in human FaDu cells assessed as reduction in wound closure at 1 to 2 uM measured after 48 hrs by bright field microscopic analysis; assay type: functional, cell-based; conditions: dose 1-2 µM
MCF7 [22] = experiment: Antiproliferative activity against human MCF7 cells assessed as inhibition of cell growth at 10 uM measured after 48 to 72 hrs by MTT assay relative to control; assay type: functional; conditions: time 48-72 hrs

DNA topoisomerase 2-alpha (Homo sapiens), sequence (P11388 whole entry): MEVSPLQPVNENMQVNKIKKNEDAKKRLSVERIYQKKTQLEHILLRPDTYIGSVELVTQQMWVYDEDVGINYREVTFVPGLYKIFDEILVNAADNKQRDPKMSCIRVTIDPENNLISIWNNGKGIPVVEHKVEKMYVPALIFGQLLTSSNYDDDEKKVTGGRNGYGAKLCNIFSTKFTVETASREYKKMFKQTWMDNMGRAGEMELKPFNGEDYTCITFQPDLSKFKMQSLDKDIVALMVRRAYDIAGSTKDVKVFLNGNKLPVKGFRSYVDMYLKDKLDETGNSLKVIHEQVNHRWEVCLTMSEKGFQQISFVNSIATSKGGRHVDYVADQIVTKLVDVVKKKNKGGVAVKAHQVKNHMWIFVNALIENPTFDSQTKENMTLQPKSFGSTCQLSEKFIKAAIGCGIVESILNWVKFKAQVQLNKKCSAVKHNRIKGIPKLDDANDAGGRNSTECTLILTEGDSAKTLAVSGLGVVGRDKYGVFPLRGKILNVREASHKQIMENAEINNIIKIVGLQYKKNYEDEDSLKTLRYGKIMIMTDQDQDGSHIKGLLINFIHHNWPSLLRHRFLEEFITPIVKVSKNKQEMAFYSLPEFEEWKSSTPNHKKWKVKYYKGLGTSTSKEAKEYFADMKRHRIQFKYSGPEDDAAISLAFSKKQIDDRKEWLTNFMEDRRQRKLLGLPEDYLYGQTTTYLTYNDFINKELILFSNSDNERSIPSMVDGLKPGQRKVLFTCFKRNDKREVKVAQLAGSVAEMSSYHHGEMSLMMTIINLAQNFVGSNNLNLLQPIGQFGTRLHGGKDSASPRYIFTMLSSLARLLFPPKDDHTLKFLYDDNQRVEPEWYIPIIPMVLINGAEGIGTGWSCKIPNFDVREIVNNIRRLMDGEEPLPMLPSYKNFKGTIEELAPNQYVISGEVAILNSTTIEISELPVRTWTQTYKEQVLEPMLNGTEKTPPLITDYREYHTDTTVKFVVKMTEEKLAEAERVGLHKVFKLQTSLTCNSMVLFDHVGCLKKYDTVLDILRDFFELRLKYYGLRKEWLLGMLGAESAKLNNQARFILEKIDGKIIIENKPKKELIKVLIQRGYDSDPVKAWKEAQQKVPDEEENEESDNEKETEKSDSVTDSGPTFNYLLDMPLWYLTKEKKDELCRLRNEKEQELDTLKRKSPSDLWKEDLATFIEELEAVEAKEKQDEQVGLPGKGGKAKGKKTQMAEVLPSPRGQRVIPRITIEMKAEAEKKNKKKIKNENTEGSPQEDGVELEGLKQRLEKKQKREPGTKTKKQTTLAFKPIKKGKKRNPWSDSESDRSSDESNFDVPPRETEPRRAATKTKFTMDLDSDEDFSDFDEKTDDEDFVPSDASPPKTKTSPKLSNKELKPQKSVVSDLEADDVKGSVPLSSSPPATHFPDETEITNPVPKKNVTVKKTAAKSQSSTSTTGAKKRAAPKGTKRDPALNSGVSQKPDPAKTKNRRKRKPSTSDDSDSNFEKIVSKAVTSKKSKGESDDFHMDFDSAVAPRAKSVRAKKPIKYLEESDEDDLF

Compound: Brc1ccc(Cc2nc(N3CCN(c4ccncc4)CC3)c3c4c(sc3n2)CCCC4)cc1
- Activity (FaDu [1]): Active
- Activity (FaDu [2]): Active
- IC50 (FaDu [3]): 1730 nM
- Activity (FaDu [3]; dose 0.5-50 µM): Dose-dependent-effect
- Activity (HEK293): Non-toxic
- Activity (Mitochondrial membrane): Dose-dependent-effect
- inhibition [4]: Active; Compound Showed Higher Inhibition Activity Than Etoposide
- Activity (FaDu [5]): Active
- Activity (MCF7 [6]): 20.2%
- inhibition [7]: 75.7%
- Activity (FaDu [8]): Active
- Activity (MCF7 [9]): 17.8%
- inhibition at 10 µM (T47D): 83.4%
- inhibition at 5 µM (FaDu [10]): 24.4%
- Activity (FaDu [11]): Dose-dependent-effect
- Activity (FaDu [12]): Active
- Activity (FaDu [13]): Active
- Activity (FaDu [14]): Active
- inhibition at 10 µM [15]: 2.28%
- Activity (FaDu [16]): Dose-dependent-effect
- Activity (FaDu [17]): Active
- inhibition (FaDu [18]): Dose-dependent-effect
- inhibition at 10 µM (A549): 39.2%
- Activity (FaDu [19]): Active
- inhibition at 10 µM (MDA-MB-231): 6.27%
- Activity (FaDu [20]): Active
- inhibition (FaDu [21]): Active
- inhibition at 10 µM (MCF7 [22]): 15.1%
